Measured values as given in PMC12067444, “Synthesis and Pharmacological Characterization of Novel Peripheral Cannabinoid-1 Receptor Blockers Based on a Tricyclic Scaffold” (Journal of Medicinal Chemistry, 2025).

What was measured:
[1] = tested on: C57BL/6J mice; experiment: CB1R agonist (HU210)-induced hypomotility; format: in vivo, mouse; conditions: 1 or 10 mg/kg PO; HU210 30 μg/kg IP; 4 h
Description: The activity profiles of the mice were evaluated using the Promethion High-Definition Behavioral Phenotyping System (Sable Instruments, Inc., Las Vegas, NV, USA). MetaScreen software version 2.2.18.0 was employed for data acquisition and instrument control, while ExpeData version 1.8.4 was used for processing raw data. An analysis script detailing all aspects of the data transformation was utilized. Mice with unrestricted access to food and water were subjected to a standard 12 h light/12 h dark cycle, comprising a 16-h acclimation period followed by 24 h of sampling. Ambulatory activity and position were concurrently quantified by the number of disruptions of the infrared beams in three dimensions (XYZ) with a beam spacing of 0.25 cm.
The objective of this experiment was to evaluate the capability of BNS808 and rimonabant (utilized as a positive control) in inhibiting hypomotility induced by a CB1R agonist (HU210). Male wild-type C57BL/6J mice were administered a single dose of either the vehicle, rimonabant (10 mg/kg, PO), or BNS808 (1 or 10 mg/kg, PO). Thirty minutes following this administration, the mice received a single dose of HU210 (30 μg/kg, IP). The locomotor activity was quantified by assessing the disruptions of infrared beams in two dimensions for 4 h.

[2] = target: T1, CYP1A2 (Homo sapiens, UniProt P05177); experiment: CYP inhibition in human liver microsomes; format: in vitro ADME; conditions: probe phenacetin, phenacetin substrate
T1 construct: from tissue; host or cells: human liver microsomes
T1 sequence (P05177 1-516): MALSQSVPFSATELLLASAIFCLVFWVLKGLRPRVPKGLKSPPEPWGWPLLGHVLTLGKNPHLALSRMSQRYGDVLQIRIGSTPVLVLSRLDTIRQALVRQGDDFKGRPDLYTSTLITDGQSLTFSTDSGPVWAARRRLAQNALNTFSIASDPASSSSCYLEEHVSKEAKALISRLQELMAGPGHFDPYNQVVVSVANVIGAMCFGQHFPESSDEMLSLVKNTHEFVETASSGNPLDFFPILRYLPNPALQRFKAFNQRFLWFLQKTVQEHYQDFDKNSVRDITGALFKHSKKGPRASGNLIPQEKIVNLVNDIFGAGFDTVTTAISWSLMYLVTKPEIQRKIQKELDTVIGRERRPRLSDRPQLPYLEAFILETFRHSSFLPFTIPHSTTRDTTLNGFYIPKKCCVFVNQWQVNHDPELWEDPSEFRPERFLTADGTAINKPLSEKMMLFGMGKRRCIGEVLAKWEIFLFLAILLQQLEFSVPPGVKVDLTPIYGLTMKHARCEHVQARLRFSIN
Description: (§1) Human liver microsomes were incubated with the test compounds at 0.2 mg/mL of microsomal protein. The incubation was conducted at 37 °C in the presence of a NADPH (β-Nicotinamide adenine dinucleotide phosphate reduced form) regenerating system at a concentration of approximately 10 mM. To assess CYP inhibition, positive control substrates were utilized, including Phenacetin (1A2 substrate), Diclofenac (2C9 substrate), S-mephenytoin (2C19 substrate), Dextromethorphan (2D6 substrate), and Midazolam (3A4 substrate). The mixture was centrifuged after a 10 min incubation period to precipitate the protein. Subsequently, the samples underwent LC-MS/MS analysis, and the IC50 values were calculated to ascertain the inhibitory potency of the test compounds on specific CYP enzymes.

[3] = target: T2, CYP2D6 (Homo sapiens, UniProt P10635); experiment: CYP inhibition in human liver microsomes; format: in vitro ADME; conditions: probe dextromethorphan, dextromethorphan substrate
T2 construct: from tissue; host or cells: human liver microsomes
Description: as §1

[4] = tested on: TA98; experiment: Mini-Ames assay, strain TA98; format: cell-based; conditions: for F value: fold vs DMSO; for Growth of lawn: replicates 1-3;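 on solubility: P0 means no precipitate in solution and no crystal growth on plates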
Description: Mini Am es assay. To conduct the assay, top agar was melted with a microwave and maintained at a temper atur e ≥47 °C in a water bath. T he assay was performed using a heat block set to 45 °C ± 2 °C. 12 × 75 mm test tubes were prepared in duplicates. For each concentration, the following components were added sequentially to a test tube:
[…] The mixture was vortexed and then dispensed into w ells using a dispo sable pipette. The plates wer e then incubated at 37±2 °C for approximately 48 to 72 hours.
BBbbbb BBBBbbbb BBBB = AAAAbbbbbbAAbb nnnnnnbbbbbb bboo bbbbAAbbbbbbbbnnbbbb oobbbb bbbb eeee dd bbbbbb AAbbbbnn gg AAAAbbbbbbAAbb nnnnnnbbbbbb bbBB bbbbAAbbbbbbbbnnbbbb BBbbbb DDDDDDDD nn bbAAbbbbaaAAbb AAbbbbnnaa The mutagenicity of the compound was determined by evaluating the number of revertant colonies in strains TA98 and TA100. A compound was […]
related and if the fold increase in revertants (F) was equal to or greater than 2 for […]
background lawn growth on the agar plates. A scoring system ranging from 0 to 4 […]
growth, respectively. A score of 4 signified full '100%' growth. […]
background lawn and required magnification for visualization. […]

T2 sequence (P10635 whole entry): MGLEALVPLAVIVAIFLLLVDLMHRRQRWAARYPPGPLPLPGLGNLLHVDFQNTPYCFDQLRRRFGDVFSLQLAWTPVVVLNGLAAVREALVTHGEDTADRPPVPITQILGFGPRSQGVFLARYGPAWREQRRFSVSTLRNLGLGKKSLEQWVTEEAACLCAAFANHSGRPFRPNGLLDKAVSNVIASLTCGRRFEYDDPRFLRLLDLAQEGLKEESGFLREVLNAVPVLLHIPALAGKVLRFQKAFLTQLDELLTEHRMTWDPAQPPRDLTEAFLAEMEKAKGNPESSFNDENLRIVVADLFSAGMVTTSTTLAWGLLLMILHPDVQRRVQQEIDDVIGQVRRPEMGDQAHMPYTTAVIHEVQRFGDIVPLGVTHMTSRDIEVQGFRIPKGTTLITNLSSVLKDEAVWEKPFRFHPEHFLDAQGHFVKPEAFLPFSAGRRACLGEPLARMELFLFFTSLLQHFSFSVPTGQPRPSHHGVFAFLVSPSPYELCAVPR

O=S(=O)(NC1CCCOc2c1nn(-c1ccccc1Cl)c2-c1ccc(Cl)cc1)c1ccc(Cl)cc1 (stereo not drawn) [BNS808, 4-chloro-N-[2-(2-chlorophenyl)-3-(4-chlorophenyl)-5,6,7,8-tetrahydrooxepino[3,2-c]pyrazol-8-yl]benzenesulfonamide] was tested, and the “antagonism of HU-210-induced hypoactivity” value [1] was “unable to antagonize the hypoactivity mediated by HU-210”, the IC50 at 10 min [2] was > 50 µM and the IC50 at 10 min [3] was > 50 µM. The “Number of revertants MEAN” value ([4]; TA98, +S9, 31.25 μg/well) was 10.67, the solubility ([4]; TA98, +S9, 31.25 μg/well) was “P0” and the F value ([4]; TA98, +S9, 31.25 μg/well) was 0.97. The Growth of lawn ([4]; TA98, +S9, 31.25 μg/well) was 4 (A score of 4 signified full '100%' growth), the “Number of revertants MEAN” value ([4]; TA98, +S9, 62.5 μg/well) was 11.33 and the solubility ([4]; TA98, +S9, 62.5 μg/well) was “P0”. The F value ([4]; TA98, +S9, 62.5 μg/well) was 1.03, the Growth of lawn ([4]; TA98, +S9, 62.5 μg/well) was 4 (A score of 4 signified full '100%' growth) and the “Number of revertants MEAN” value ([4]; TA98, +S9, 125 μg/well) was 11.33. For the same compound, the solubility ([4]; TA98, +S9, 125 μg/well) was “P0”, the F value ([4]; TA98, +S9, 125 μg/well) was 1.03 and the Growth of lawn ([4]; TA98, +S9, 125 μg/well) was 4 (A score of 4 signified full '100%' growth). For the same compound, the “Number of revertants MEAN” value ([4]; TA98, +S9, 250 μg/well) was 13.00, the solubility ([4]; TA98, +S9, 250 μg/well) was “P1 (0~20% growth of crystals)” and the F value ([4]; TA98, +S9, 250 μg/well) was 1.18. For the same compound, the Growth of lawn ([4]; TA98, +S9, 250 μg/well) was 4 (A score of 4 signified full '100%' growth), the “Number of revertants MEAN” value ([4]; TA98, +S9, 500 μg/well) was 10.00 and the solubility ([4]; TA98, +S9, 500 μg/well) was “P2 (20%~60% growth of crystals)”. For the same compound, the F value ([4]; TA98, +S9, 500 μg/well) was 0.91, the Growth of lawn ([4]; TA98, +S9, 500 μg/well) was 4 (A score of 4 signified full '100%' growth) and the “Number of revertants MEAN” value ([4]; TA98, +S9, 1000 μg/well) was 9.67. The solubility ([4]; TA98, +S9, 1000 μg/well) was “P3 (60%~100% growth of crystals)”, the F value ([4]; TA98, +S9, 1000 μg/well) was 0.88 and the Growth of lawn ([4]; TA98, +S9, 1000 μg/well) was 4 (A score of 4 signified full '100%' growth). The “Number of revertants MEAN” value ([4]; TA98, -S9, 31.25 μg/well) was 6.67, the solubility ([4]; TA98, -S9, 31.25 μg/well) was “P0” and the F value ([4]; TA98, -S9, 31.25 μg/well) was 0.91. For the same compound, the Growth of lawn ([4]; TA98, -S9, 31.25 μg/well) was 4 (A score of 4 signified full '100%' growth), the “Number of revertants MEAN” value ([4]; TA98, -S9, 62.5 μg/well) was 8.67 and the solubility ([4]; TA98, -S9, 62.5 μg/well) was “P0”. For the same compound, the F value ([4]; TA98, -S9, 62.5 μg/well) was 1.18, the Growth of lawn ([4]; TA98, -S9, 62.5 μg/well) was 4 (A score of 4 signified full '100%' growth) and the “Number of revertants MEAN” value ([4]; TA98, -S9, 125 μg/well) was 7.33. For the same compound, the solubility ([4]; TA98, -S9, 125 μg/well) was “P0”, the F value ([4]; TA98, -S9, 125 μg/well) was 1.00 and the Growth of lawn ([4]; TA98, -S9, 125 μg/well) was 4 (A score of 4 signified full '100%' growth). For the same compound, the “Number of revertants MEAN” value ([4]; TA98, -S9, 250 μg/well) was 4.00, the solubility ([4]; TA98, -S9, 250 μg/well) was “P1 (0~20% growth of crystals)” and the F value ([4]; TA98, -S9, 250 μg/well) was 0.55. The Growth of lawn ([4]; TA98, -S9, 250 μg/well) was 4 (A score of 4 signified full '100%' growth), the “Number of revertants MEAN” value ([4]; TA98, -S9, 500 μg/well) was 5.33 and the solubility ([4]; TA98, -S9, 500 μg/well) was “P2 (20%~60% growth of crystals)”. For the same compound, the F value ([4]; TA98, -S9, 500 μg/well) was 0.73, the Growth of lawn ([4]; TA98, -S9, 500 μg/well) was 4 (A score of 4 signified full '100%' growth) and the “Number of revertants MEAN” value ([4]; TA98, -S9, 1000 μg/well) was 3.33. The solubility ([4]; TA98, -S9, 1000 μg/well) was “P3 (60%~100% growth of crystals)”, the F value ([4]; TA98, -S9, 1000 μg/well) was 0.45 and the Growth of lawn ([4]; TA98, -S9, 1000 μg/well) was 4 (A score of 4 signified full '100%' growth).
